Holding throughout (format): cell-based
Assay [1] has as its target T1, TYK2 (Homo sapiens, UniProt P29597). Briefly: TYK2 degradation MSD assay in human PBMC cells. More on the design: endogenous in cells; host or cells: human PBMC. To be noted: 4 to 24 hours incubation, read-out: TYK2 MSD DC50 rating in human PBMC. A digest of the protocol: (§1)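 DC50 values reflect dose-dependent decrease of TYK2 protein, read by MSD after cells were exposed to compound (top 1 to 10 μM, 1:3, 9 doses) for 4 to 24 hours at 37° C.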

In assay [2] the target is T1, TYK2. Briefly: TYK2 degradation MSD assay in OCI-LY10 cells. The note with it: 4 to 24 hours incubation, read-out: TYK2 MSD DC50 rating in OCI-LY10. More on the design: endogenous in cells; host or cells: EBV-B cells. A digest of the protocol: as §1
Assay [3] has as its target T1, TYK2. Nature of the assay: TYK2 degradation MSD assay in EBV-B cells. Also on record: endogenous in cells; host or cells: EBV-B cells. To be noted: 4 to 24 hours incubation, read-out: TYK2 MSD DC50 rating in EBV-B. A digest of the protocol: as §1

Bounds are passed on as bounds.

T1 sequence (P29597 whole entry): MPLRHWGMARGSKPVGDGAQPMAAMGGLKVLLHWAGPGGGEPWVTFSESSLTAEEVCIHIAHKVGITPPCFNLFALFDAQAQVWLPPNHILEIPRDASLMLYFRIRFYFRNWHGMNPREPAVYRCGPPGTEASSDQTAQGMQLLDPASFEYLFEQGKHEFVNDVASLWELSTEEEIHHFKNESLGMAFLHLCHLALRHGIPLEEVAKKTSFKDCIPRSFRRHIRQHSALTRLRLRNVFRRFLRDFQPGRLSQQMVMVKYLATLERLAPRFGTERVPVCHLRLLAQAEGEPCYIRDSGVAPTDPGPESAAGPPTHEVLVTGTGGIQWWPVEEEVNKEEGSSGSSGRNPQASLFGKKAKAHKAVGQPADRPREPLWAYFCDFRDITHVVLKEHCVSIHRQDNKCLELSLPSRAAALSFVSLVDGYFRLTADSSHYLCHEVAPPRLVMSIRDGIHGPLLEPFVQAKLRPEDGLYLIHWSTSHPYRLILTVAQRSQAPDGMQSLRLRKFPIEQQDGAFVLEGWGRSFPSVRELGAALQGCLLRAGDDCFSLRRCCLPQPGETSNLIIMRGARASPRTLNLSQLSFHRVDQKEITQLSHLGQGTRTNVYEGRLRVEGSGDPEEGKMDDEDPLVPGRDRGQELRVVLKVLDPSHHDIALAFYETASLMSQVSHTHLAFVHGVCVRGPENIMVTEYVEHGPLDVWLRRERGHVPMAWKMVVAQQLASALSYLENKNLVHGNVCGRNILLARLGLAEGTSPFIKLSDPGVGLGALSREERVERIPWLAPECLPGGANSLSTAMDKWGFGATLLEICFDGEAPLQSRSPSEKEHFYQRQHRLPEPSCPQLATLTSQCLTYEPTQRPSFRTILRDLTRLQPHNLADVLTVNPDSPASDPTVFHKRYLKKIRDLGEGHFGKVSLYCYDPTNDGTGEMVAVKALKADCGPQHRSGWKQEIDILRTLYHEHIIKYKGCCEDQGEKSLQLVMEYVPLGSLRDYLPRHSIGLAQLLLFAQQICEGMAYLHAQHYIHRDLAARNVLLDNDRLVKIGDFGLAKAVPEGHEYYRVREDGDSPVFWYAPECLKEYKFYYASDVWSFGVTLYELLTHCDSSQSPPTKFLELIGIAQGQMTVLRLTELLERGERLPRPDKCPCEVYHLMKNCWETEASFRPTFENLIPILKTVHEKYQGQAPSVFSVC

As a reminder, the DC50 is the midpoint of the concentration-degradation curve. Regarding `CNc1cc(Nc2cccc(N3CCC(CN4CCC(c5ccc(-c6ccc7c(c6)n(C)c(=O)n7C6CCC(=O)NC6=O)cc5)CC4)CC3)c2OC)nn2c(C(=O)N[C@@H]3C[C@@H]3F)cnc12` (stereo partly drawn) [Example K622], the DC50 is greater than 100 nM in assay [1], less than 1 nM in assay [2] and greater than 100 nM in assay [3].

Turning to `CNc1cc(Nc2cccc(N3CCC(CN4CC5(C4)CN(c4ccc(-c6ccc7c(c6)n(C)c(=O)n7C6CCC(=O)NC6=O)cc4)C5)CC3)c2OC)nn2c(C(=O)N[C@@H]3C[C@@H]3F)cnc12` (stereo partly drawn) [Example K623], the DC50 is greater than 100 nM in assay [1], less than 1 nM in assay [2] and greater than 100 nM in assay [3].

In the case of `CNc1cc(N2CCc3c(-c4ccc(CN5CCC6(CC5)CCN(C(=O)c5cccc(N7CCC(=O)NC7=O)c5)CC6)cn4)cccc32)nn2c(C(=O)N[C@@H]3C[C@@H]3F)cnc12` [Example K625], the values for the half-maximal degradation concentration (DC50) in assay [1], in assay [2] and in assay [3] were greater than 100 nM, less than 1 nM and greater than 100 nM, respectively.

With `CNc1cc(N2CCc3c(-c4ccc(C(=O)N5CCC(CN6CCN(c7ccc(-c8ccc9c(c8)n(C)c(=O)n9C8CCC(=O)NC8=O)cc7)CC6)CC5)cn4)cccc32)nn2c(C(=O)N[C@@H]3C[C@@H]3F)cnc12` (stereo partly drawn) [Example K627], the DC50 in assay [1] is greater than 100 nM; in assay [2], less than 1 nM; in assay [3], greater than 100 nM.

Consider `CNc1cc(Nc2cccc(-c3ccc(C(=O)N4CCN(CC5CCN(c6ccc(-c7ccc8c(c7)n(C)c(=O)n8C7CCC(=O)NC7=O)cc6)CC5)CC4)cn3)c2OC)nn2c(C(=O)N[C@@H]3C[C@@H]3F)cnc12` (stereo partly drawn) [Example K628], for which the DC50 in assay [1] is greater than 100 nM; in assay [2] it was 1 to 10 nM; in assay [3], greater than 100 nM.

In the case of `CNc1cc(Nc2cccc(-c3ccc(C(=O)N4CCC(CN5CCN(c6ccc(-c7ccc8c(c7)n(C)c(=O)n8C7CCC(=O)NC7=O)cc6)CC5)CC4)cn3)c2OC)nn2c(C(=O)N[C@@H]3C[C@@H]3F)cnc12` (stereo partly drawn) [Example K629], the results for the half-maximal degradation concentration (DC50) in assay [1], in assay [2] and in assay [3] were greater than 100 nM, less than 1 nM and greater than 100 nM, respectively.

`CNc1cc(Nc2cccc(-c3ccc(CN4CCN(c5ccc(-c6ccc7c(c6)n(C)c(=O)n7C6CCC(=O)NC6=O)cc5)CC4)cn3)c2OC)nn2c(-c3cn(C(C)C)nn3)cnc12` (stereo not drawn) [Example K630]: the DC50 in assay [1] is greater than 100 nM; in assay [2], 1 to 10 nM; in assay [3] it was greater than 100 nM.

`CNc1cc(N2CCc3c(-c4ccc(CN5CCN(c6ccc(-c7ccc8c(c7)n(C)c(=O)n8C7CCC(=O)NC7=O)cc6)CC5)cn4)cccc32)nn2c(-c3cn(C(C)C)nn3)cnc12` (stereo not drawn) [Example K631]: the DC50 was greater than 100 nM in assay [1], 1 to 10 nM in assay [2] and greater than 100 nM in assay [3].

With `CNc1cc(Nc2cccc(-c3ccc(C(=O)N4CCN([C@H]5CC[C@H](c6ccc(-c7ccc8c(c7)n(C)c(=O)n8C7CCC(=O)NC7=O)cc6)CC5)CC4)cn3)c2)nn2c(C(=O)N[C@@H]3C[C@@H]3F)cnc12` (stereo partly drawn) [Example K632], the results for the 50% degradation concentration (DC50) in assay [1], in assay [2] and in assay [3] were greater than 100 nM, less than 1 nM and greater than 100 nM, respectively.

On to `CNc1cc(Nc2cccc(-c3ccc(C(=O)N4CCN(c5ccc(-c6ccc7c(c6)n(C)c(=O)n7C6CCC(=O)NC6=O)cc5)CC4)cn3)c2)nn2c(C(=O)N[C@@H]3C[C@@H]3F)cnc12` (stereo partly drawn) [Example K633], for which the DC50 in assay [1] is greater than 100 nM; in assay [2], less than 1 nM; in assay [3] it was greater than 100 nM.

In the case of `CNc1cc(N2CCc3c(CN4CCC(CN5CCN(c6ccc7c(c6)n(C)c(=O)n7C6CCC(=O)NC6=O)CC5)CC4)cccc32)nn2c(C(=O)N[C@@H]3C[C@@H]3F)cnc12` (stereo partly drawn) [Example K634], the DC50 was greater than 100 nM in assay [1], less than 1 nM in assay [2] and greater than 100 nM in assay [3].

Take `CNc1cc(N2CCc3c(N4CCC(CN5CCC(C#Cc6cccc7c6n(C)c(=O)n7C6CCC(=O)NC6=O)CC5)CC4)cccc32)nn2c(C(=O)N[C@@H]3C[C@@H]3F)cnc12` (stereo partly drawn) [Example K635]: the DC50 in assay [1] is greater than 100 nM; in assay [2], 1 to 10 nM; in assay [3] it was greater than 100 nM.

Regarding `CNc1cc(N2CCc3c(-c4ccc(CN5CCN(c6cccc7c6n(C)c(=O)n7C6CCC(=O)NC6=O)CC5)cn4)cccc32)nn2c(C(=O)N[C@@H]3C[C@@H]3F)cnc12` (stereo partly drawn) [Example K637], the DC50 in assay [1] is greater than 100 nM; in assay [2] it was 1 to 10 nM; in assay [3], greater than 100 nM.

As to `CNc1cc(N2CCc3c(N4CCC(CN5CCN(c6ccc7c(c6)n(C)c(=O)n7C6CCC(=O)NC6=O)CC5)CC4)cccc32)nn2c(C(=O)N[C@@H]3C[C@@H]3F)cnc12` (stereo partly drawn) [Example K638], the results for the DC50 in assay [1], in assay [2] and in assay [3] were greater than 100 nM, less than 1 nM and greater than 100 nM, respectively.

`CNc1cc(Nc2cccc(C3CCN(CCc4cccc5c4n(C)c(=O)n5C4CCC(=O)NC4=O)CC3)c2)nn2c(C(=O)N[C@@H]3C[C@@H]3F)cnc12` (stereo partly drawn) [Example K641]: the DC50 in assay [1], in assay [2] and in assay [3] was greater than 100 nM each time.

As for `Cn1c(=O)n(C2CCC(=O)NC2=O)c2ccc(-c3ccc(N4CCN(Cc5ccc(-c6cccc(Nc7nn8c(C(=O)N[C@@H]9C[C@@H]9F)cnc8c8c7OCCN8)c6Cl)nc5)CC4)cc3)cc21` (stereo partly drawn) [Example K642], the values for the DC50 in assay [1], in assay [2] and in assay [3] were greater than 100 nM, 1 to 10 nM and greater than 100 nM, respectively.

For `CNc1cc(N2CCc3c(N4CCN(C5CCN(c6ccc7c(c6)n(C)c(=O)n7C6CCC(=O)NC6=O)CC5)CC4)cccc32)nn2c(C(=O)N[C@@H]3C[C@@H]3F)cnc12` (stereo partly drawn) [Example K645], the DC50 in assay [1] is greater than 100 nM; in assay [2] it was less than 1 nM; in assay [3], greater than 100 nM.

Turning to `CNc1cc(N2CCc3c(N4CCN(C5CC6(CCN(c7ccc8c(c7)n(C)c(=O)n8C7CCC(=O)NC7=O)CC6)C5)CC4)cccc32)nn2c(C(=O)N[C@@H]3C[C@@H]3F)cnc12` (stereo partly drawn) [Example K646], the DC50 is greater than 100 nM in assay [1], less than 1 nM in assay [2] and greater than 100 nM in assay [3].

With `CNc1cc(Nc2cccc(C3CCN(C(=O)Cc4cccc5c4n(C)c(=O)n5C4CCC(=O)NC4=O)CC3)c2)nn2c(C(=O)N[C@@H]3C[C@@H]3F)cnc12` (stereo partly drawn) [Example K647], the DC50 in assay [1], in assay [2] and in assay [3] was greater than 100 nM each time.

Regarding `CNc1cc(Nc2ccc(F)c(-c3ccc(Cc4ccc(-c5ccc6c(c5)n(C)c(=O)n6C5CCC(=O)NC5=O)cc4)cn3)c2OC)nn2c(C(=O)N[C@@H]3C[C@@H]3F)cnc12` (stereo partly drawn) [Example K648], the DC50 in assay [1] was greater than 100 nM; in assay [2], 1 to 10 nM; in assay [3], greater than 100 nM.

Turning to `CNc1cc(N2CCc3c(-c4cc(N5CCN([C@H]6CC[C@H](c7ccc8c(c7)n(C)c(=O)n8C7CCC(=O)NC7=O)CC6)CC5)ccn4)cccc32)nn2c(C(=O)NC3CC3F)cnc12` (stereo partly drawn) [Example K650, N-[(1R,2S)-2-fluorocyclopropyl]-8-(methylamino)-6-[4-(4-{4-[(1r,4r)-4-[1-(2,6-dioxopiperidin-3-yl)-3-methyl-2-oxo-1,3-benzodiazol-5-yl]cyclohexyl]piperazin-1-yl}pyridin-2-yl)-2,3-dihydroindol-1-yl]imidazo[1,2-b]pyridazine-3-carboxamide], the DC50 in assay [1] was greater than 100 nM; in assay [2], less than 1 nM; in assay [3] it was greater than 100 nM.

Turning to `CNc1cc(N2CCc3c(-c4cc(N5CCN(c6ccc7c(c6)n(C)c(=O)n7C6CCC(=O)NC6=O)CC5)ccn4)cccc32)nn2c(C(=O)C[C@@H]3C[C@@H]3F)cnc12` (stereo partly drawn) [Example K652], the DC50 in assay [1], in assay [2] and in assay [3] was greater than 100 nM each time.

With `CNc1cc(N2CCc3c(-c4cc(N5CCN(c6cccc7c6n(C)c(=O)n7C6CCC(=O)NC6=O)CC5)ccn4)cccc32)nn2c(C(=O)N[C@@H]3C[C@@H]3F)cnc12` (stereo partly drawn) [Example K653], the DC50 in assay [1], in assay [2] and in assay [3] was greater than 100 nM in each case.

In the case of `CNc1cc(N2CCc3c(-c4cc(N5CCN(CC6CCN(c7cccc8c7n(C)c(=O)n8C7CCC(=O)NC7=O)CC6)CC5)ccn4)cccc32)nn2c(C(=O)NC3CC3F)cnc12` (stereo not drawn) [Example K656], the DC50 in assay [1] was greater than 100 nM; in assay [2], 1 to 10 nM; in assay [3] it was greater than 100 nM.

Regarding `CNc1cc(N2CCc3c(-c4cc(CN5CCN(c6ccc7c(c6)n(C)c(=O)n7C6CCC(=O)NC6=O)CC5)ccn4)cccc32)nn2c(C(=O)NC3CC3F)cnc12` (stereo not drawn) [Example K657], the figures for the 50% degradation concentration (DC50) in assay [1], in assay [2] and in assay [3] were greater than 100 nM, less than 1 nM and greater than 100 nM, respectively.

As for `CNc1cc(N2CCc3c(-c4cc(CN5CCN(c6ccc(-c7ccc8c(c7)n(C)c(=O)n8C7CCC(=O)NC7=O)cc6)CC5)ccn4)cccc32)nn2c(C(=O)N[C@@H]3C[C@@H]3F)cnc12` (stereo partly drawn) [Example K658], the DC50 is greater than 100 nM in assay [1], 1 to 10 nM in assay [2] and greater than 100 nM in assay [3].

Regarding `CNc1cc(Nc2cccnc2OCC2CCN(C3CCN(c4ccc5c(c4)n(C)c(=O)n5C4CCC(=O)NC4=O)CC3)CC2)nn2c(C(=O)NC3CC3F)cnc12` (stereo not drawn) [Example K659], the results for the DC50 in assay [1], in assay [2] and in assay [3] were greater than 100 nM, 1 to 10 nM and greater than 100 nM, respectively.

Turning to `CNc1cc(Nc2cccc(-c3ccc(CN4CCC(N5CCN(c6ccc7c(c6)n(C)c(=O)n7C6CCC(=O)NC6=O)CC5)C(F)(F)C4)cn3)c2OC)nn2c(C(=O)NC3CC3F)cnc12` (stereo not drawn) [Example K660], the DC50 in assay [1] is greater than 100 nM; in assay [2], less than 1 nM; in assay [3] it was greater than 100 nM.

On to `CNC(=O)c1cnc(Nc2ccc(CN3CCC(N(C)c4cccc5c4n(C)c(=O)n5C4CCC(=O)NC4=O)CC3)cn2)cc1Nc1cccc(-c2ncc(F)cn2)c1OC` (stereo not drawn) [Example K700], for which the DC50 in assay [1] is less than 1 nM; in assay [2], less than 1 nM; in assay [3] it was greater than 100 nM.

The values are drawn from patent US20250051338A1, “TYK2 DEGRADERS AND USES THEREOF” (Kymera Therapeutics, Inc., priority 2021, published 2025).
